Test results as given in US8535740B2, “Compositions from Nigella sativa” (priority 2002, dated 2013).
Values after ≈ are worked out from the molar mass of the structure shown. Marks after values point to notes of the source that are not given here.

Experiments:
Caco-2 monolayers = test: t10-CLA-induced loss of transepithelial electrical resistance in Caco-2 monolayers; format: cell-based, human
From the text: Caco-2 Cells-The protocol for growing and differentiation the human Caco-2 colon andenocarcinoma cells was a modification of Protocol 3 as described by Yamashita et al. [[…]., and Furuyama, Y. (2002) New and better protocols for a short-term Caco-2 cell culture system, J Pharm Sci 91, 669-679]. Caco-2 Human Colon Adenocarcinoma cells were obtained from ATCC (Rockville, Md.; catalog #HTB-37) and maintained in a growth media: DMEM (Dulbecco's Modified Eagles Medium 1×) containing L-glutamine, glucose; Cellgro catalog #35-010CV with the following additions: (1) Penicillin (5,000 IU/mL)/Streptomycin (5,000 μg/mL) Cellgro catalog #30-001C1, (2) 10% FBS-Fetal Bovine Serum, Characterized; Hyclone catalog #SH30071.3, and (3) 1% NEAA-Non Essential Amino Acids; Cellgro catalog #25-025-CI; cells were cultured at 37 C in a humidified air-5% CO2 atmosphere in T175 flasks. Differentiation of Caco-2 cells to intestinal epithelial cells-BIOCOAT^R HTS Caco-2 Assay System kits (Becton Dickinson, N.J.; catalog #354801) consisting of 24-well fibrillar collagen coated inserts and feeder trays were used in all experiments and plated as follows. Media was removed from the T175 flasks and cells were washed with 10 mLs PBS (phosphate buffered saline 1× without Ca^++, without Mg^++; Cellgro #25-053-CI). PBS was removed and 5 mL of Trypsin/EDTA (1×, 0.25% Trypsin/2.21 mM EDTA in HBSS; Cellgro #25-053-CI) were added to the flask and the flask placed at 37 C until cells were visibly floating, approximately 3-5 minutes. Five mL of growth media were added to the flask to neutralize the trypsin. This solution was then transferred to a sterile 50 mL tube. Eight μL were sampled and placed in a hemocytometer for counting under a microscope. Five-hundred μL of cell solution were placed in the upper chamber of each insert so that the final density per well was at least 6.6×10^5 cells/cm^2. Thirty-five mL of growth media were then added to the feeder tray and plate incubated at 37 C with 5% CO2 and 100% humidity for 20-24 hours. […]

[1] = tested on: iNOS-mediated NO biosynthesis in C2C12 myocytes; test: LTI cytokine-stimulated NO biosynthesis in C2C12 myocytes; format: cell-based, murine; conditions: Mus musculus, value computed on the basis of TQ content, LPS/TNFα/IFγ stimulation 20 hours, (95% confidence interval), read-out: Median Inhibitory Concentration for iNOS-mediated NO biosynthesis, C2C12 Myocytes
Method: Mouse C2C12 myoblasts (American Type Culture Collection, Manassas, Va.) were maintained in Dulbecco's modified Eagle's medium (DMEM) supplemented with 10% fetal calf serum (FCS), 50 units/ml penicillin and 50 μg/ml streptomycin. As cells reached confluence, the medium was switched to the differentiation medium containing DMEM and 2% horse serum. Medium was changed every other day. […] At the end of the treatment period, media were sampled for determination of NO. […] Determination of nitrite in waters by microplate fluorescence spectroscopy and HPLC with fluorescence detection. Anal Chem. Aug. 1 1999; 71(15):3003-3007). In a separate, black-walled, 96-well, microtiter plate, a 7 μL aliquot of a 4.8×10^-4 mol NBDM/L solution was added to 200 μL of the supernatant media followed by the addition of 15 μL of concentrated phosphoric acid. After a reaction time of 30 minutes at ambient temperature, the fluorescence was read with 485 nm excitation filter and a 530 nm emission filter in a Packard Fluorocount spectrofluorometer (Model #BF10000, Meridan, Conn.). […] Quantitative analysis of dose-effect relationships: the combined effects of multiple drugs or enzyme inhibitors.

[2] = tested on: adiponectin secretion in 3T3-L1 adipocytes; test: Adiponectin secretion in t10-CLA-stimulated 3T3-L1 adipocytes; format: cell-based, murine
Method: Treatment—Test materials were added four hours prior to the addition of t10-CLA at a concentration of 50 μM. Following overnight incubation, the supernatant media were sampled for determination of IL-6 and adiponectin. Adiponectin assay—The adiponectin secreted into the medium was quantified using the Mouse Adiponectin Quantikine® Immunoassay kit with no modifications (R&D Systems, Minneapolis, Minn.). […] Statistical Calculations and Interpretation—Test materials and were assayed in duplicate, while solvent controls were replicated eight times. IL-6 and adiponectin secretion were represented relative to the IL-6 and adiponectin secretion of the t10-CLA only controls as the IL-6 and adiponectin index and differences among the means were analyzed by the student's t-test assuming a five percent probability of a type I error (Excel; Microsoft, Redmond, Wash.).

- effect on loss of TEER in t10-CLA-stimulated Caco-2 cells (Caco-2 monolayers; concentrations of Table 7): inhibited loss of TEER
- IC50 [1]: 1.9 µg/mL (≈ 11.6 µM)
Structure (SMILES): CC1=CC(=O)C(C(C)C)=CC1=O [Thymoquinone (Sigma), thymoquinone]
- Relative Loss of TEER (Caco-2 monolayers; 50 μM t10-CLA stimulus, positive control set to 100, each material at its tabulated concentration (TQ 5.0, NS8 0.11, NS9 0.99, NS10 0.012, NSSpent#2 0.0005 μg TQ equivalents/mL; Spent#1 5 μg/mL)): 44.5*
- effect on t10-CLA-stimulated decrease of adiponectin secretion ([2]; concentrations of Table 8): attenuated t10-CLA-stimulated decrease of adiponectin secretion
- Adiponectin Index ([2]; relative to t10-CLA only control (100), 50 μM t10-CLA, overnight, each material at its tabulated concentration): 128*
